Where “and” joins values, the source holds several entries; their conditions need not be identical. Equal values may be shown once. Read-outs that look alike come from different tables or passages of the source.
How the values were obtained:
[1] = Dissolving rate (time until solution is clear) of succinic acid and succinic acid-NaHCO3 adduct; type: physicochemical; conditions: for Time until solution is clear: three runs
Protocol: This solution is stirred and heated briefly until all the solids have dissolved. Then the solution is dried to constant weight (for approximately 48 hours) at approximately 105° C. in a drying oven. The product, which forms amorphous crystals, is homogenized in a mortar.

[2] = for pH of finished solution: 1st-3rd test
Description: This concentrate was then mixed with a 1 molar sodium bi-carbonate solution and diluted with the stated amount of water.

[3] = 12.98 g/L, 0.11 mol/l, concentrate 0.22 meq/L
[4] = 19.47 g/L, 0.165 mol/l, concentrate 0.33 meq/L
[5] = 25.96 g/L, 0.22 mol/L, concentrate 0.44 meq/L
[6] = 38.94 g/L, 0.33 mol/L, concentrate 0.66 meq/L
[7] = 58.11 g/L, 0.495 mol/L, concentrate 0.99 meq/L

## O=C(O)CCC(=O)O [succinic acid]
[1]; [3]
  Time until solution is clear, Average: 210
  Time until solution is clear: 200 and 210 and 220
[1]; [4]
  Time until solution is clear, Average: 250
  Time until solution is clear: 230 and 250 and 270
[1]; [5]
  Time until solution is clear, Average: 358
  Time until solution is clear: 400 and 375 and 300
[1]; [6]
  Time until solution is clear, Average: 460
  Time until solution is clear: 510 and 420 and 450
[1]; [7]
  Time until solution is clear, Average: >900
  Time until solution is clear: 900 and >1080 and 960
[1]; in water, in words
  dissolution rate: very low
[2]; 35 mL 1 molar NaHCO3, 951 mL water, 14 mL 0.15 molar succinic acid
  pH of finished solution: 7.08 and 7.09
[2]; 35 mL 1 molar NaHCO3, 953 mL water, 12 mL 0.15 molar succinic acid
  pH of finished solution: 7.16 and 7.17
[2]; 35 mL 1 molar NaHCO3, 955 mL water, 10 mL 0.15 molar succinic acid
  pH of finished solution: 7.26 and 7.27
[2]; 35 mL 1 molar NaHCO3, 957 mL water, 8 mL 0.15 molar succinic acid
  pH of finished solution: 7.42 and 7.39 and 7.41
[2]; 40 mL 1 molar NaHCO3, 946 mL water, 14 mL 0.15 molar succinic acid
  pH of finished solution: 7.14 and 7.16 and 7.19
[2]; 40 mL 1 molar NaHCO3, 948 mL water, 12 mL 0.15 molar succinic acid
  pH of finished solution: 7.24 and 7.25
[2]; 40 mL 1 molar NaHCO3, 950 mL water, 10 mL 0.15 molar succinic acid
  pH of finished solution: 7.34 and 7.35 and 7.32
[2]; 40 mL 1 molar NaHCO3, 952 mL water, 8 mL 0.15 molar succinic acid
  pH of finished solution: 7.46 and 7.47 and 7.48
[2]; in terms of the finished ready-to-use solution, relatively high sodium bicarbonate concentration
  concentration sufficient to adjust a physiological pH: 1.5 mmol/L

Reference: patent US6673376B1, “Method of preparing a solution, in particular a dialysis or infusion solution” (Fresenius Medical Care Deutschland GmbH, priority 1998, dated 2004)
